This is an account of results in US10981958B2, “Peptide modulator of purinergic receptors” (priority 2016, dated 2021).

For assay [1], the target named is T1, P2X2/3 receptors (Rattus norvegicus, UniProt P49653+P49654).
T1 construct: In the membranes of dorsal root ganglia, along with P2X3 receptors, P2X2 and P2X2/3 receptors are also found; endogenous in cells; host or cells: acutely isolated dorsal root ganglion neurons of 9-12-day Wistar rats
T1 sequence (P49653 1-472): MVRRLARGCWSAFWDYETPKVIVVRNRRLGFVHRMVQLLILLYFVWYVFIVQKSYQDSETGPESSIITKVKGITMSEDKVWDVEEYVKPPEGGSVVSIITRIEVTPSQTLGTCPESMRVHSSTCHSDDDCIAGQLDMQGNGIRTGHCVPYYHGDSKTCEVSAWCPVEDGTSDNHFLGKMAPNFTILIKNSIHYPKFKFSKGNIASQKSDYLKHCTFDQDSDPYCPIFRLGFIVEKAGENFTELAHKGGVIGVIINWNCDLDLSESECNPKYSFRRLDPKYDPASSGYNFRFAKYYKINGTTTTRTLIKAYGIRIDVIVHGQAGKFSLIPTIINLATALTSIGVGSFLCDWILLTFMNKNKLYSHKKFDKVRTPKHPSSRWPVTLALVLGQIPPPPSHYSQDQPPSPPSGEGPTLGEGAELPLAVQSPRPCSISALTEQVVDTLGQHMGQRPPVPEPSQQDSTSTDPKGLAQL
T1 sequence (P49654 1-397): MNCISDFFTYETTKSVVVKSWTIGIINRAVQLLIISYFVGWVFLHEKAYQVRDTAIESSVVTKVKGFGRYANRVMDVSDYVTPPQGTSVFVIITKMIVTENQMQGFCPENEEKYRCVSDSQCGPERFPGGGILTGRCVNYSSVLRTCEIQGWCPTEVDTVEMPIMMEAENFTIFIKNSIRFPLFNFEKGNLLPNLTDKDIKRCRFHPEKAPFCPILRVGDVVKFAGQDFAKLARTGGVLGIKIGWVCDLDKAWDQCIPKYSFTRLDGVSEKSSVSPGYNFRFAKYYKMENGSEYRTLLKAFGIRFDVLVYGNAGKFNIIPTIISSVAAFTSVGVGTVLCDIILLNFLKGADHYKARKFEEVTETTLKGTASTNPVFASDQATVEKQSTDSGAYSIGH
The conditions noted are these: agonist sensitivity, dorsal root ganglia neurons; read-out: sensitivity of P2X2/3 receptor to agonist (Kd); cited from earlier work.

In assay [2] the target is T2, P2X2 receptors (Rattus norvegicus, UniProt P49653).
T2 construct: In the membranes of dorsal root ganglia, along with P2X3 receptors, P2X2 and P2X2/3 receptors are also found; endogenous in cells; host or cells: acutely isolated dorsal root ganglion neurons of 9-12-day Wistar rats
T2 sequence (P49653 1-472): T1 sequence (P49653 1-472)
The conditions noted are these: agonist activation; cited from earlier work.

In a further assay the target is P2X3 receptors (Rattus norvegicus, UniProt P49654). The conditions noted are these: PT6 50 nM; rat sensory (dorsal root ganglia) neurons; agonist CTP 100 μM; holding potential −60 mV.
Assay [3] deals with T1, P2X2/3 receptors. The assay is described as follows: Whole-cell patch clamp of P2X2/3-mediated currents in rat dorsal root ganglia neurons. It is filed as cell-based. The conditions noted are these: PT6 50 nM (FIG. 2). As for the experimental part:
(§1) In the membranes of dorsal root ganglia, along with P2X3 receptors, P2X2 and P2X2/3 receptors are also found [Burgard E. C. et al. P2X receptor-mediated ionic currents in dorsal root ganglion neurons//J. Neurophysiol., 1999, V. 82, P. 1590-1598]. The time for exit of P2X3 receptors from desensitization is very large compared to P2X2 and P2X2/3 receptors. With the agonist application for 1 min, all observed responses, except for the first, are mediated by P2X2 and P2X2/3 receptors. The sensitivity of P2X2/3 receptor to ATP and α,β-methylene-ATP is similar (Kd ˜30 μM), and the minimal concentration of α,β-methylene-ATP necessary for activation of P2X2 receptors is at least 100 μM. The equivalence of ionic currents observed in response to consecutive application of ATP and α,β-methylene-ATP indicates a significant predominance of P2X2/3 receptors on the cell membrane. In cells, which generate ionic currents of various amplitude, i.e. greater in response to ATP application, and very low in response to application of α,β-methylene-ATP, the membrane contains mainly P2X2 receptors. […] Therefore, it has been established suddenly that peptide PT6 acts selectively on the receptors of P2X3 isoform and is a selective antagonist of purinergic P2X3 receptors.
For orientation: The patch-clamp technique gives a direct electrical read-out from membranes.

Assay [4] has as its target T2, P2X2 receptors. The assay is described as follows: Whole-cell patch clamp of P2X2-mediated currents in rat dorsal root ganglia neurons. The conditions noted are these: PT6 50 nM (FIG. 2). It is filed as cell-based. As for the experimental part: as §1

Where no end group is shown, it is not given here.

Procedure for P2X3 receptors: Neurons for the experiments are isolated from dorsal root ganglia of 9-12-day Wistar rats. The ganglia are placed to a Petri dish filled with the extracellular solution (130 mM NaCl, 5 mM KCl, 2 mM CaCl2, 2 mM MgCl2, 20 mM HEPES, pH 7.4) at room temperature, and then transferred to the enzyme solution (1 mg of trypsin and 2 mg of collagenase in 2 ml of the extracellular solution) heated up to 35° C., and incubated for 10 min. Then the ganglia are rinsed thoroughly with a pure (without enzymes) extracellular solution in another Petri dish. Single cells are isolated from the rinsed ganglia using fine needles. A dish with single cells is transferred to the electrophysiological unit. The experiments begin after all cells are settled to the dish bottom in 30 min after isolation.
Electrophysiological tests are performed using the whole-cell configuration of the classic method of patch clamp and the approach of a rapid application of a substance (agonist), which binds to P2X3 receptors and induces ion channel opening. The electrophysiological setup consists of three parts: microscope; sample application system (“jumping table”; Pharma Robot, Ukraine); and recording system of the current flowing through channels in the cell plasma membrane. […] Currents are recorded at the holding potential of −60 mV and room temperature with a Model 2400 Patch Clamp Amplifier (A-M Systems, USA). […]

As for `Nc1ncnc2c1ncn2[C@@H]1O[C@H](COP(=O)(O)OP(=O)(O)OP(=O)(O)O)[C@@H](O)[C@H]1O` [ATP, adenosine triphosphate], the Kd on P2X2/3 receptors [1] is approximately 30 µM.
With `Nc1ncnc2c1ncn2[C@@H]1O[C@H](COP(=O)(O)CP(=O)(O)OP(=O)(O)O)[C@@H](O)[C@H]1O` [α,β-methylene-ATP], the Kd at P2X2/3 receptors [1] was approximately 30 µM. Also, on P2X2 receptors [2], the “minimal concentration necessary for activation of P2X2 receptors” value is “at least 100 μM”.
As for “GYCATKGIKCNDIHCCSGLKCDSKRKVCVKG (cysteine pairing not given here) [PT6]”, the “decrease of the current amplitude mediated by P2X3 receptors (inhibition of currents)” value with P2X3 receptors was 80%. For the same molecule, the “effect on ionic currents mediated by P2X2/3 receptors” value with P2X2/3 receptors [3] is recorded as “does not affect”. For the same molecule, in the assay with P2X2 receptors [4], the “effect on ionic currents mediated by P2X2 receptors” value is recorded as “does not affect”.
